Experimental findings from PMC3278406 (PLoS ONE, 2012) are described below.

The target in one assay is Stx1B (Stx1 B-subunits) (Bacteriophage H30, UniProt P69178). The assay is classed as binding, Escherichia coli O157:H7. The settings on record: read-out: Kd of Stx1B for glycan.
Another assay addresses Stx2B (Stx2 B-subunits) (Escherichia phage 933W, UniProt P09386). The assay is classed as binding, Escherichia coli O157:H7.

Sequence of Stx2B (Stx2 B-subunits) (P09386 20-89 limits assumed): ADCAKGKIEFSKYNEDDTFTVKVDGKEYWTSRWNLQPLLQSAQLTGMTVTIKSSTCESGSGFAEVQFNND
Sequence of Stx1B (Stx1 B-subunits) (P69178 21-89 limits assumed): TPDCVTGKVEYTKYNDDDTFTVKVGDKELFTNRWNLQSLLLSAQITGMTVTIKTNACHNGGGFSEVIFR

For Galα1-4Galβ1-4Glc [Pk], the Kd at Stx1B (Stx1 B-subunits) was 4 ± 0.3 mM; at Stx2B (Stx2 B-subunits) (read-out: Kd of Stx2B for glycan) it was above 12 mM. For the same substance, the “binding of Stx2B to glycan” value on Stx2B (Stx2 B-subunits) is “no binding”.
